# Reference: patent publication US8222432B2 (BioLink Life Sciences, Inc., priority 2008, dated 2012)
# Like-named read-outs stand apart in the source and are kept apart here.
# Legend:
# pyruvate dehydrogenase = settings: cited from earlier work
# [1] = Storage stability of magnesium R-(+)-α-lipoate at room temperature / ambient humidity
# Source text: Test samples of magnesium R-(+)-α-lipoate were stored at ambient temperatures for two years.
# glucose assimilation = settings: comparable to the effect of 200 nM insulin; cited from earlier work
# [2] = test system: glucose transporters (GLUT 1 and GLUT 4); settings: cited from earlier work
# [3] = closed and sealed amber container, cited from earlier work
# [4] = test system: neuropathic symptoms and deficits; settings: 600 mg/day over a 3-week period; cited from earlier work
# diabetic neuropathy = settings: >600 mg/day; cited from earlier work
# nerve function = settings: 600 or 1200 mg daily, 24 months; cited from earlier work
# [5] = test system: cardiac autonomic neuropathy; settings: 800 mg daily, 4 months, diabetic patients with cardiac autonomic neuropathy; cited from earlier work
# diabetic polyneuropathy = settings: 3-week period; cited from earlier work
# [6] = test system: neuropathy impairment score; settings: 600 mg daily for 6 months, 509 patients; cited from earlier work
# [7] = ambient temperatures, two years
compound,measurement,setting,value
O=C(O)CCCCC1CCSS1 (stereo not drawn) [R-(+)-α-lipoic acid],activity of pyruvate dehydrogenase,pyruvate dehydrogenase,increased
same,visible signs of polymerization or degradation,[1]; [7],"clumping of the compound, development of a strong sulfur odor, and formation of small and visible gummy balls of dark yellow material"
same,stimulation of glucose assimilation (factor),glucose assimilation,greater than 2
same,translocation of GLUT 1 and GLUT 4 from the cytosol to the plasma membrane,[2],stimulated
same,storage stability,[3]; refrigerated temperatures,must be used within a few months
"O=C(O)CCCCC1CCSS1 (stereo not drawn) [α-lipoic acid, 1,2-dithiocyclopentane-3-valeric acid]",positive neuropathic symptoms and neuropathic deficits; safety,[4],safe and effective
same,patient symptoms,diabetic neuropathy,significantly improved patient symptoms
same,nerve function,nerve function,improved nerve function
same,heart rate variability,[5],significantly improved
same,sensory symptoms (Total Symptom Score),diabetic polyneuropathy,improved sensory symptoms
same,neuropathy impairment score,[6],improved neuropathy impairment score as early as 19 days
same,storage stability,[3]; room temperature,a year or longer
S-(−)-α-lipoic acid [S-(−)-α-lipoate],activity of pyruvate dehydrogenase,pyruvate dehydrogenase,inhibited
same,stimulation of glucose assimilation (factor),glucose assimilation,little or no change
same,total content of glucose transporters,[2],appeared to lower
same,translocation of GLUT 1 and GLUT 4 from the cytosol to the plasma membrane,[2],had no effect or has an inhibiting effect
"O=C(O)CCCC[C@@H]1CCSS1 [magnesium R-(+)-α-lipoate, magnesium R-(+)-alpha-lipoate]",hygroscopicity,"[1]; ambient environments, relative humidities as high as 75%",not hygroscopic
same,"chemical composition, purity and chiral purity on storage",[1]; [7],did not change during storage under these conditions
same,physical state / appearance and properties on storage,[1]; [7],did not change over time
same,visible signs of polymerization or degradation,[1]; [7],no visible signs of polymerization or degradation
same,physical appearance and properties on storage,"[1]; room temperature, relative humidities as high as 75%, one week",did not change during storage
